Data reported in patent publication US7208153B2, “Method for the improvement of neuronal regeneration” (Neuraxo Biopharmaceuticals GmbH, priority 1997, dated 2007).
Entries after “also recorded” stand apart in the source; their conditions may differ.

Key:
[1] = system: basal membrane formation (collagen IV) in the lesion site; assay: Lesion-induced basal membrane (collagen IV) deposition after postcommissural fornix transection, immunohistochemistry; type: in vivo, Wistar rats
Experimental: In an effort to modulate postlesion BM deposition, either polyclonal antibodies against collagen IV (anti-Coll IV; n=14) or the iron chelator a, a′-dipyridyl (DPY; n=9) were injected locally into the lesion center immediately after transection. […] (13) and enhanced procollagen degradation (14). Control animals received a PBS injection (n=9) or were sham operated (n=3). Basal membrane formation was studied in response to antibody and drug treatment using immunohistochemical methods. […] At 2 weeks after lesion+injection only a very small number of Coll-immunreactive structures perpendicular to the tract course had developed (FIG. 1e, f).
Surgery. The left postcommissural fornix of 42 Wistar rats (180–210 g) was transected stereotactically at a distance of about 1 mm proximal to the target, the mammillary body, using a Scouten wire knife as described previously (9). The completeness of transection was confirmed by serial reconstruction of the lesion site for each of the animals. Immediately after transection animals received a topical application (1.6 μl) of either polyclonal antibodies against collagen, IV (anti-Coll IV, Biogenex, 50–100 μg/ml, n=14) or the iron chelator a, a′-dipyridyl (DPY, 1–10 mM, n=9). Substances were pressure injected (injection time 10 min) directly into the lesion site via a micropipette coupled to a microsyringe. Controls received equal amounts of phosphate-buffered saline (n=9) or sham operation (n=3).
Immunohistochemical staining. After a survival time of 4 days (d), 6 d, 2 weeks (w), 4 w and 6 w after surgery brains were removed, frozen in isopentan (−50/−60° C.) and cut into serial sagittal 10 μm thick sections. […]

[2] = system: transected postcommissural fornix axons; assay: Regeneration of transected postcommissural fornix axons across the lesion site (NF immunohistochemistry, anterograde tracing, electron microscopy); type: in vivo, Wistar rats
[3] = system: Na+-dependent action potentials of fornix fibers; parameters: species or system rats

c1ccc(-c2ccccn2)nc1 [DPY, a, a′-dipyridyl]
lesion-induced BM deposition ([1]; local injection): significantly reduced | Coll-immunopositive laminae and blood vessels in the lesion center and the fornix stumps ([1]; single local injection immediately after transection, anti-Coll IV 80–160 ng or DPY 1.6–16 μmol, all examined survival time points): massive and specific reduction | Collagen IV deposition in the lesion site ([1]; two weeks postsurgery, FIG. 1e, f): markedly reduced | regeneration of transected fornix fibers across the lesion site (NF-immunohistochemistry) ([2]; 6 weeks postsurgery, FIG. 2): fibers traverse the former lesion site | elongation of fornix axons into and across the lesion center ([2]; between 2 and 4 weeks after lesion+injection, immunocytochemical staining): large numbers of axons entered and traversed the lesion center

NC1=N[C@H](O)[C@H]2[C@H]3O[C@]4(O)O[C@@H]([C@@H](O)[C@@]2(N1)[C@@H]4O)[C@]3(O)CO [Tetrodotoxin]
stimulus-evoked extracellular response [3]: blocks the stimulus-evoked response; also recorded: blocked
